Results taken from patent publication US20060167083A1, “Therapeutic methods and compositions involving isoflav-3-ene and isoflavan structures” (priority 2002, published 2006).
Converted amounts (≈) assume the structure as drawn. Read-outs that look alike come from different tables or passages of the source.

Experiments:
colon cancer line HT29 = assay: Anti-proliferative effect on HT29; type: cell-based; settings: Homo sapiens, HT-29
human topo II = molecular target: T1, human topo II (Homo sapiens, UniProt P11388); assay: Topo II-mediated P4 unknotting assay; type: biochemical
T1 construct: purchased Topogen (Columbus, Ohio)
T1 sequence (P11388 whole entry): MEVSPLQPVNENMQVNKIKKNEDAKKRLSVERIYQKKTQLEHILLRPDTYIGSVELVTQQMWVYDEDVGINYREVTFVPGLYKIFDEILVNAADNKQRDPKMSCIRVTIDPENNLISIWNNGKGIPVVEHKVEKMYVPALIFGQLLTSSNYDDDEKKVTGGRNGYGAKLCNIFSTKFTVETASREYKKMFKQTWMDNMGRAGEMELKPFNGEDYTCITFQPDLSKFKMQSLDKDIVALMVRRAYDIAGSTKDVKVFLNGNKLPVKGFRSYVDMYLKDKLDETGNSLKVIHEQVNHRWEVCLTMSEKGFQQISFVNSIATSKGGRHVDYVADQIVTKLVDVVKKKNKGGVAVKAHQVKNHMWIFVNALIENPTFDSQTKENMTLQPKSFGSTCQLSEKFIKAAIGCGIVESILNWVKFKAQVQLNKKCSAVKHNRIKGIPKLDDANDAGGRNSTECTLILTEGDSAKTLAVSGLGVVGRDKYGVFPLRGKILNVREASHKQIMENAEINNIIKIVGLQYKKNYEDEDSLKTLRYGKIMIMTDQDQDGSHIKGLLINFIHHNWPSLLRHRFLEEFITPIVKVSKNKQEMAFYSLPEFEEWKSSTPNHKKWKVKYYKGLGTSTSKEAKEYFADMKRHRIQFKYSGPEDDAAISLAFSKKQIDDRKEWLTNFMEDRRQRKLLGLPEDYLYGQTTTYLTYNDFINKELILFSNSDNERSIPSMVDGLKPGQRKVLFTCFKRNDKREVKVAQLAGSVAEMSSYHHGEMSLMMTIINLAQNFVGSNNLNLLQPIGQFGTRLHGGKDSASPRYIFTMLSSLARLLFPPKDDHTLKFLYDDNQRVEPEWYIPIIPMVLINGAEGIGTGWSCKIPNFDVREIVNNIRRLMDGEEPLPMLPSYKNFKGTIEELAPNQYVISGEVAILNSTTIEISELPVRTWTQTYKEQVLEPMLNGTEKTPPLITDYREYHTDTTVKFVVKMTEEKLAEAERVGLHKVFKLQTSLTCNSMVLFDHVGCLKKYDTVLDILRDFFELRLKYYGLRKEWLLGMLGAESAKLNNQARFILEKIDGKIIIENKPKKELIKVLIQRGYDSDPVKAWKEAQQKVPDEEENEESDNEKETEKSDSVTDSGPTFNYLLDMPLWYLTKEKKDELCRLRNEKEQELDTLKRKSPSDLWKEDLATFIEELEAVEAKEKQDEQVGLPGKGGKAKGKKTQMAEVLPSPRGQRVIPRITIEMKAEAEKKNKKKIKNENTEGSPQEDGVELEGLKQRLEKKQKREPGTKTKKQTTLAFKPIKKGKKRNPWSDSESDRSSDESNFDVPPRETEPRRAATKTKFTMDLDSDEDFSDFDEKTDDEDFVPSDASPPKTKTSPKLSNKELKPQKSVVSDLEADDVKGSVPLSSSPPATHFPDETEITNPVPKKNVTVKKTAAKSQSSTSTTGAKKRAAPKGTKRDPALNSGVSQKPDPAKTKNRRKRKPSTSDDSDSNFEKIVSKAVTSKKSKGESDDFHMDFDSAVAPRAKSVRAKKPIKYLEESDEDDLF
Method: FIG. 1 represents an unknotting assay for determining the effect of dehydroequol on topo II catalytic activity. Substrate P4 DNA was incubated with two units of purified topo II in the absence (lane 1) or presence of 100, 80, 60, 40, 20, and 10 μg/ml dehydroequol (lanes 3-8). Lane 2, 10 μg/ml VP-16 (positive control). Topo II activity was determined by converting knotted P4 DNA (K) to the unknotted (U) form.
The stepwise removal of DNA knots (unknotting) requires transient double-strand breakage followed by strand passage and relegation. Type II topoisomerases uniquely catalyse this reaction. […] DNA from a mutant bacteriophage (P4 Virl del1O) is used as a reaction substrate that migrates as a smear (due to the variable number of knots). In the presence of topo II, topological DNA knots are removed, and the reaction product (unknotted DNA) migrates as a single band. Complete inhibition was evident at 100 μg/ml dehydroequol. It was determined from densitometric measurements of the unknotted band that 50% inhibition (IC50) was at about 20 μg/ml dehydroequol.
To determine topoisomerase (topo) II catalytic activity, knotted DNA that had been isolated from the tailless capsids of the bacteriophage P4 Virl del1O was used as the substrate. Reaction mixtures contained 50 mM Tris-HCl, pH 8.0, 120 mM KCl, 10 mM MgCl2, 0.5 mM ATP, and 0.5 mM dithiothreitol. The topo II inhibitor was added prior to the addition of 2 units of human topo II. Reactions (20 μl final volume) were initiated by adding 0.6 μg of knotted DNA and carried out at 37° C. for 30 min. […] For the quantitative determination of topo II activity, photographic negatives were densitometrically scanned. Unknotted DNA, migrating as a single band at the top of the gel, was measured in this manner. The concentration of the inhibitor preventing 50% of the substrate (knotted DNA) from being converted into the reaction product (unknotted DNA) was determined from a standard curve. By averaging three to four such experiments, the IC50 values were determined.

[1] = system: human prostatic adenocarcinoma cell line LNCaP; assay: Proliferation of LNCaP cells, MTT assay; type: cell-based
Method: Proliferation assay: HUVEC were seeded at 3×10^3 cells per gelatin-coated microtitre well and grown in complete medium for 3 days. Dehydroequol (De) was added 3 hours after plating. Proliferation was measured using the MTT assay (Promega, Wis., USA) and is given as the rate of proliferation over the 3 days±SEM of quadruplicate determinations for each group. Proliferation of LNCaP cells was determined using the MTT assay. Cells were seeded at 2.5×10^3 cells per microtitre well. De was added 4 days after plating and assayed after a further 5 days of growth. Cell viability is expressed as a percentage of control untreated cells.

leukaemic cell line HL60 = assay: Anti-proliferative effect on HL60; type: cell-based; settings: Homo sapiens, HL-60
tNOX = molecular target: T2, tNOX (Homo sapiens, UniProt Q16206); assay: tNOX inhibition, 96-well plate assay with HeLa in dithiodipyridine substrate; type: cell-based; settings: 10 μm
T2 construct: endogenous in cells; host or cells: HeLa (human cervical carcinoma)
T2 sequence (Q16206 whole entry): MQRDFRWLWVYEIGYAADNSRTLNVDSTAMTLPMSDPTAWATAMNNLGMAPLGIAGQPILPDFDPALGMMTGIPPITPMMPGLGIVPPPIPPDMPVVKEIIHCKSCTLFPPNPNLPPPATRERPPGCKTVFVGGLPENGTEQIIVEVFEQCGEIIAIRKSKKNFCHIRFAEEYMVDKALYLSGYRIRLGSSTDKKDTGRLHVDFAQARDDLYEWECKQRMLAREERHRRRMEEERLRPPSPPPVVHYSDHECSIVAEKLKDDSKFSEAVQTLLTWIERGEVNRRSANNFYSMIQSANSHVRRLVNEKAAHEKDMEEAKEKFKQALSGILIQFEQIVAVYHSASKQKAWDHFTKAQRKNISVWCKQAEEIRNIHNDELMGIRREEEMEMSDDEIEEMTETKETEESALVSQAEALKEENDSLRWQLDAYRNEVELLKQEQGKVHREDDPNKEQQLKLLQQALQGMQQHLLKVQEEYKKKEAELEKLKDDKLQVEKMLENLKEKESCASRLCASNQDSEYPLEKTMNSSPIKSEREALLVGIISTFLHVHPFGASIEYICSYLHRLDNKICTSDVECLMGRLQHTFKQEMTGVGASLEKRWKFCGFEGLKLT
Description: A 96-well plate assay was used containing human cervical carcinoma (HeLa) in a dithiodipyridine substrate.

[2] = system: Ras transformed NIH 3T3 cells; assay: Focus formation assay; type: cell-based; settings: 10 μg/ml, 3 weeks
Method: (§1) Focus formation assay: Low passage NIH 3T3 cells were transfected with either human ras gene (Ras) or empty vector (Vect) control^19. Two days later the transfected cells were seeded in 6 well plates. After reaching confluence, the cells were cultured in the vehicle DMSO or De (10 μg/ml final) for 3 weeks with media change every 3-4 days (±De). Foci were scored after staining with 0.5% crystal violet. One experiment of two performed is shown.

[3] = system: LNCaP human prostate cells; assay: Athymic mice xenograft assay; type: in vivo, athymic Balb/c mice; settings: 2 mg uid orally, 5 days per week, 58 days; treated versus control group, p<0.0003
Method: Athymic mice xenograft assay: LNCaP human prostate cells were implanted subcutaneously into athymic Balb/c mice and De (2 mg uid) administered orally from the time of cell inoculation for 5 days per week. Animals were killed 58 days post-implantation and tumour mass (mg) calculated from the formula (width^2×length)/2 as used in NCI.

[4] = system: prostate cancer line DU145; assay: Anti-proliferative effect on DU145; type: cell-based; settings: Homo sapiens, DU-145
Sphingosine Kinase (SK) = assay: Sphingosine kinase activity assay in endothelial cells; type: cell-based, human
Method: Sphingosine Kinase activity assay: SK activity was measured in vitro by incubating the cytosolic fraction with 10 μM sphingosine-BSA complex and [γ^32P]ATP (1 mM, 0.5 mCi/ml) for 15 minutes at 37° C., as previously described^42. Stimulation was with TNFα (1 ng/ml) (rhTNF-α; R & D Systems, Minneapolis Minn. USA), PMA (100 ng/ml) and IL-1β (100 units/ml) (hrIL-1β; Immunex, Seattle Wa. USA) for 10 minutes. Cells were treated with De or DMSO vehicle as control for 18 hours prior to stimulation.

breast cancer line MCF7 = assay: Anti-proliferative effect on MCF7; type: cell-based; settings: Homo sapiens
sphingomyelinase = assay: TNF-stimulated sphingomyelinase activity; type: cell-based; settings: data not shown
normal NIH 3T3 cells = assay: Viability of normal NIH 3T3 cells in focus formation assay; type: cell-based; settings: 10 μg/ml, 3 weeks
Method: as §1

[5] = system: Human umbilical vein endothelial cells (HUVEC); assay: Endothelial cell migration (wound) assay; type: cell-based
Method: Migration assay: HUVEC were plated at 5×10^5 cells per gelatin-coated 6 well dish and grown to confluence over 48 hours. Wounds were made in the monolayer, cells washed 3 times and fresh complete media with or without De (10 μg/ml final concentration) added. Migration was viewed over the following 18-72 hours.

Oc1ccc(C2=Cc3ccc(O)cc3OC2)cc1 [Dehydroequol, 4′,7-dihydroxyisoflav-3-ene]
IC50 (colon cancer line HT29): 15 µg/mL (≈ 62.4 µM)
concentration at which complete inhibition of topo II unknotting was evident (human topo II): 100 µg/mL
effect on topo II catalytic activity compared with positive control (human topo II; VP-16 10 μg/ml as positive control): comparable to that of VP-16
IC50 (human topo II; densitometric measurements of the unknotted band, read-out: 50% inhibition (IC50) of topo II unknotting (converted)): ~83.2 µM
IC50 ([1]; LNCaP, read-out: IC50 anti-proliferative): 1.5 µg/mL
IC50 ([1]; LnCaP, n=3 separate experiments, read-out: In vitro cytotoxicity IC50): 4.4 µM
IC50 (leukaemic cell line HL60): 1.5 µg/mL (≈ 6.24 µM)
inhibition of tNOX activity (tNOX): inhibit tNOX activity
inhibition of development of colonies (foci) [2]: completely inhibited
tumour growth inhibition [3]: 49%
IC50 [4]: 3 µg/mL (≈ 12.5 µM)
SK inhibition compared with N,N-dimethylsphingosine (DMS) (Sphingosine Kinase (SK)): equipotent
inhibition of SK activity generated by stimulation with IL-1 (Sphingosine Kinase (SK); dose-dependent, 18 hours pretreatment, IL-1β 100 units/ml 10 minutes): inhibits
inhibition of SK activity generated by stimulation with PMA (Sphingosine Kinase (SK); dose-dependent, 18 hours pretreatment, PMA 100 ng/ml 10 minutes): inhibits
inhibition of SK activity generated by stimulation with TNF (Sphingosine Kinase (SK); dose-dependent, 18 hours pretreatment, TNFα 1 ng/ml 10 minutes): inhibits
effect on basal levels of SK activity (Sphingosine Kinase (SK); unstimulated): no effect
IC50 (breast cancer line MCF7): 1.5 µg/mL (≈ 6.24 µM)
effect on TNF-stimulated sphingomyelinase activity (sphingomyelinase): does not affect
viability of normal cells (normal NIH 3T3 cells): still maintaining the viability
inhibition of EC migration ([5]; 10 μg/ml): inhibits
viability of EC not in the vicinity of the wound ([5]; in the presence of De for 72 hours): remained viable
